Results: patent US20050208678A1, “Anti-fusion assay” (priority 2001, published 2005)
Where no end group is shown, it is not given here.

Key:
[1] = tested on: IQN17; test: Binding of Alexa-C28 to IQN17, titration measured by capillary zone electrophoresis; set-up: species or system HIV-1; conditions: 5 μM Alexa-C28, increasing concentration of IQN17, FIG. 3
Protocol: Eckert et al., Cell 99, 103-115 (1999). C28 was labeled with the fluorescent molecule, Alexa-430 (Molecular Probes) at its carboxyl terminal (Alexa-C28). The binding was measured by titration of labeled C28 with IQN17. The concentration of bound and unbound C28 was measured by capillary zone electrophoresis.
Capillary Electrophoresis Separations. Capillary electrophoresis experiments were conducted on a Beckman Coulter P/ACE System MDQ and a Spectrumedix 9610HTS. […] Separations were conducted with an applied voltage of 30 kV. The capillaries used in the Spectrumedix 9610HTS has an inner diameter of 50 μm, effective length of 50 cm, and an inner surface of fused silica. Separations were conducted with an applied voltage of 13 kV. Separation buffer was 20 mM Sodium Borate, pH=8.5. Peptides traveling passed a fluorescence detector were excited by a laser emitting at 488 nm. The peaks were analyzed using software packages supplied by the instrument companies. In the figures, RFU refers to relative fluorescence units.
Binding of C28 to IQN17: Peptide concentrations were determined by weight. […] The binding affinity of C28 to IQN-17 was determined by a capillary electrophoresis (FIG. 3). […]
The area of the Alexa-C28 peaks in increasing concentrations of IQN-17 was analyzed in comparison to the area of Alexa-C28 in the absence of IQN-17 by capillary zone electrophoresis. […]

[2] = molecular target: IQN17 (HIV-1 (gp41 segment); GCN4-pIQI segment designed)

Row | Molecule | amount of unbound peptide (broader peak on the right) in titration [1] | percent of C28 bound [2] [%]
1 | Alexa-C28: C28 labeled with the fluorescent molecule Alexa-430 at its carboxyl terminal (WMEWDREINNYTSLIHSLIEESQNQQEK-{Alexa‑430}) | decreased from 100% to 0% | 
2 | WMEWDREINNYTSLIHSLIEESQNQQEK (modifications not checked) [Alexa-C28] |  | 80
